# Reference: patent US20240148819A1, “COMPOUNDS FOR USE IN THE TREATMENT OF SINUSITIS, PNEUMONIA OR OTITIS” (PHARMA HOLDINGS AS, priority 2021, published 2024)
# Several values for one entry are separate records, joined by “and”; a condition that tells them apart may be missing. Identical values can stand only once. Like-named read-outs stand apart in the source and are kept apart here.
# Key:
# Candida tropicalis = Candida tropicalis - ATCC750 - reference strain
# Description: (§1) Bacterial and fungal isolates used in this study were from various sources worldwide stored at GR Micro Ltd. and maintained, with minimal sub-culture, deep frozen at −70° C. as a dense suspension in a high protein matrix of undiluted horse serum.
# (§2) Minimum inhibitory concentration (MIC) of LTX-109 was determined using the following microbroth dilution methods for antimicrobial susceptibility testing published by the Clinical and Laboratory Standards Institute (CLSI, formerly NCCLS): • M7-A6 Vol. 23 No. 2 Jan. 2003 Methods for Dilution Antimicrobial Susceptibility Tests for Bacteria that Grow Aerobically; Approved Standard-Sixth Edition. National Committee for Clinical Laboratory Standards. • M100-S15 Vol. 25 No 1. January 2005 Performance Standards for Antimicrobial Susceptibility Testing; Fifteenth Informational Supplement. Clinical and Laboratory Standards Institute • M11-A6 Vol. 24 No. 2 Methods for Antimicrobial Susceptibility Testing of Anaerobic Bacteria; Approved Standard-Sixth Edition. National Committee for Clinical Laboratory Standards. • M27-A2 Vol. 22 No. 15 Reference Method for Broth Dilution Antifungal Susceptibility Testing of Yeasts; Approved Standard-Second Edition. National Committee for Clinical Laboratory Standards. • M38-A Vol. 22 No. 16 Reference Method for Broth Dilution Antifungal Susceptibility Testing of Filamentous Fungi; Approved Standard. National Committee for Clinical Laboratory Standards.
# (§3) MIC estimations were performed using wet plates, containing the LTX-109, prepared at GR Micro Ltd.
# (§4) Yeast and filamentous fungal MIC were performed in MOPS buffered RPMI 1640 medium (MOPS buffer obtained from Sigma Aldrich Ltd., RPMI 1640 obtained from Invitrogen Ltd, Paisley, Scotland). The yeast inocula were in the range 7.5×10^2-4×10^3 CFU/mL and the filamentous fungi approximately 8×10^3-1×10^5 CFU/mL.
# (§5) Following normal practice all the plates containing Mueller-Hinton broth were prepared in advance, frozen at −70° C. on the day of preparation and defrosted on the day of use. Fungal, Haemophilus and anaerobic MIC determinations were all performed in plates prepared on the same day.
# Candida krusei = Candida krusei - ATCC6258 - reference strain
# Description: as §1, §2, §3, §4, §5
# Candida albicans = tested on: Candida albicans
# Description: as §1, §2, §3, §4, §5
# Aspergillus niger = Aspergillus niger - G. R. Micro collection
# Description: as §1, §2, §3, §4, §5
# Candida parapsilosis = Candida parapsilosis - ATCC90018 - reference strain
# Description: as §1, §2, §3, §4, §5
# Mycoplasma pneumoniae = tested on: Mycoplasma pneumoniae
# Description: Two library strains of Mycoplasma pneumoniae were used. These strains were stored at GR Micro Ltd. and maintained, with minimal sub-culture, deep frozen at −70° C. as a dense suspension in a high protein matrix of undiluted horse serum.
# MIC determination was carried out using a broth microdilution method in Mycoplasma Broth Base (Oxoid Ltd, Hampshire, UK), prepared according to the manufacturer's instructions.
# Haemophilus influenzae = tested on: Haemophilus influenzae
# Description: as §1, §2, §3, §5
# [1] = tested on: Respiratory Syncytial Virus (RSV); experiment: TCID50 assay after 1 h incubation of virus with LTX-109 (Example 2); assay type: cell-based; conditions: for Percentage: decrease in RSV infectivity, compared to PBS control
# Description: To test whether 1% LTX-109 (w/v) and 0.1% LTX-109 (w/v) have antiviral activity against RSV, 1×10^5 infectious units of RSV (40 μl) were incubated with four volumes of 1% LTX-109 or 0.1% LTX-109 dissolved in PBS (160 μl) or a PBS (Phosphate-buffered saline) control. The experiment was performed in triplicates.
# After 1 hour, the incubation was stopped by adding an excess of cold media, and the formulation was physically separated from the virus through a filter to reduce cytotoxicity on the assay cells. Some cloudiness in the preparation was observed, particularly for the 1% formulation, but no precipitation. Infectious virus was quantified through a serial dilution (a series of ten-fold dilutions) on monolayers of Hep2 cells in microtitre plates (Hep2 cells are mammalian cells capable of displaying a cytopathic effect (CPE) upon viral infection). The starting solution for the serial dilution (i.e. the neat (or undiluted) solution) was obtained by re-suspending the virus that was separated via the filtration step in 1 ml of media. For each dilution of the virus in the dilution series, eight wells of the microtitre plate were tested (i.e. each dilution of virus was applied to eight separate wells, each well containing a Hep2 cell monolayer). Appropriate controls were also performed. […] The TCID50 (TCID50/ml) assay (Tissue Culture Infectious Dose 50 assay) is a type of endpoint dilution assay that is well known in the art and routinely used to quantitatively measure virus titres. TCID50/ml provides a measure of infectious units of virus/ml. “/ml” refers to/ml of the starting solution (i.e. neat/undiluted solution) mentioned above.
# MDCK-II cells = conditions: 1% LTX-109 (w/v) in PBS, 1 h, after filtration, no virus; dilution up to which cytotoxicity on MDCK-II cells was seen
# Description: (§6) A parallel test where the same procedure was carried out in the absence of virus was included to determine any residual cytotoxic effect of the formulation on the assay cells.
# Hep2 cells = conditions: 1 h, after filtration, no virus
# Description: as §6
# Rhinovirus 60, 2268-CV37 = experiment: TCID50 assay after 1 h incubation of virus with 3% LTX-109, stopped by dilution (Example 7); assay type: cell-based
# HeLa cells = experiment: Parallel test without virus for residual cytotoxicity (Example 7); assay type: cell-based, human; conditions: 3% LTX-109 (w/v) or 0.25% SDS, after dilution (50 μl in 5 ml), no virus
# Description: as §6
# Vero cells = conditions: 1% LTX-109 (w/v), 1 h, after filtration, no virus
# Description: as §6
# [2] = tested on: SARS-CoV-2 Isolate England02/2020; assay type: cell-based
compound,measurement,setting,value
CC(C)(C)c1cc(C(C)(C)C)c2[nH]c(C(C)(C)C)c(CC(NC(=O)C(N)CCCNC(=N)N)C(=O)NC(CCCNC(=N)N)C(=O)NCCc3ccccc3)c2c1 (stereo not shown) [LTX-109],MIC,Candida tropicalis,4 µg/mL
same,MIC,Candida krusei,4 µg/mL
same,MIC,Candida albicans; Candida albicans - ATCC24433 - reference strain,8 µg/mL
same,MIC,Candida albicans; Candida albicans - ATCC90028 - reference strain,8 µg/mL
same,MIC,Aspergillus niger,8 µg/mL
same,MIC,Candida parapsilosis,16 µg/mL
same,MIC,Mycoplasma pneumoniae; one of the library strains of Mycoplasma pneumoniae,32 µg/mL
same,MIC,Mycoplasma pneumoniae; the other of the library strains of Mycoplasma pneumoniae,16 µg/mL
same,MIC,Haemophilus influenzae; Haemophilus influenzae - β-lactamase negative clinical isolate,8 µg/mL
same,MIC,"Haemophilus influenzae; Haemophilus influenzae - β-lactamase negative, ampicillin resistant",8 µg/mL
same,MIC,Haemophilus influenzae; Haemophilus influenzae - β-lactamase positive clinical isolate,8 µg/mL
same,Percentage,"[1]; 0.1% LTX-109, 1 h",99.9% and 99.97%
same,Percentage,"[1]; 1% LTX-109, 1 h",99.9% and 99.949%
same,Log,[1]; log of RSV titre after 1 h with 0.1% LTX-109,1.78
same,Log,[1]; log of RSV titre after 1 h with 1% LTX-109,2.20
same,With Filtration (cytotoxicity),MDCK-II cells,Up to 10^−1
same,With Filtration (cytotoxicity),Hep2 cells; 0.1% LTX-109 (w/v),No cytotoxicity
same,With Filtration (cytotoxicity),Hep2 cells; 1% LTX-109 (w/v),Up to 10^−1
same,Log decrease,"Rhinovirus 60, 2268-CV37; Rhinovirus, 3% LTX-109 or 0.25% SDS, 1 hour, compared to PBS control",1.9 log
same,Percentage,"Rhinovirus 60, 2268-CV37; decrease in Rhinovirus infectivity, 3% LTX-109 or 0.25% SDS, 1 hour, compared to PBS control",98.87%
same,Log,"Rhinovirus 60, 2268-CV37; log of Rhinovirus titre after 1 hour with 3% LTX-109 or 0.25% SDS",2.3
same,Cytotoxicity,HeLa cells,Neat
same,With Filtration (cytotoxicity),Vero cells,Up to 10^−1
same,Log,[2],2.28
same,Percentage,[2],99.99% and 99.995%
